Tests used:
Test in all cases: biochemical
Set-up in all cases: Invitrogen SelectScreen kinase panel, percent inhibition at 1 uM, ATP at Km
Details in all cases: read-out: Invitrogen KSS %Inh at 1 µM
[1] = target: ABL2 (Arg) (Homo sapiens, UniProt P42684)
Procedure: (§1) The METi and RAFi were screened against kinase panels (SelectScreen, Invitrogen; University of Dundee, Division of Signal Transduction Therapy, UK; Upstate Biotechnology/Millipore, Billerica, MA). In these selectivity assays the concentration of ATP was set to the Km value of ATP for each kinase tested to allow for a relative potency comparison between the various kinases. The compounds were tested at 1 µM final concentration. […] Supplementary file pone.0039653.s002.pdf: Figure S2 Kinase Selectivity Screen of RAFi. (A) Kinase selectivity screen (KSS) performed at University of Dundee (Division of Signal Transduction Therapy). Values in % inhibition of phosphorylation given 1 µM of RAFi compared to control. (B) KSS performed at Invitrogen (Selectscreen Service) compared to control. Values in % inhibition of phosphorylation given 1 µM of RAFi. (C) Cell based dose response kinase inhibition of indicated kinases by RAFi. (PDF) Click here for additional data file.

[2] = target: STK3 (MST2) (Homo sapiens, UniProt Q13188)
Procedure: as §1

[3] = target: PRKACA (PKA) (Homo sapiens, UniProt P17612)
Procedure: as §1

[4] = target: RET (Homo sapiens, UniProt P07949)
Procedure: as §1

[5] = target: MAPK10 (JNK3) (Homo sapiens, UniProt P53779)
Procedure: as §1

[6] = target: FRAP1 (mTOR) (Homo sapiens, UniProt P42345)
Procedure: as §1

[7] = target: FLT3 D835Y (Homo sapiens, UniProt P36888, D835Y)
Procedure: as §1

[8] = target: AKT2 (PKB beta) (Homo sapiens, UniProt P31751)
Procedure: as §1

[9] = target: SRC (Homo sapiens, UniProt P12931)
Procedure: as §1

[10] = target: HIPK4 (Homo sapiens, UniProt Q8NE63)
Procedure: as §1

[11] = target: YES1 (Homo sapiens, UniProt P07947)
Procedure: as §1

[12] = target: MAP2K1 (MEK1) (Homo sapiens, UniProt Q02750)
Procedure: as §1

[13] = target: PAK6 (Homo sapiens, UniProt Q9NQU5)
Procedure: as §1

[14] = target: CAMK2A (CaMKII alpha) (Homo sapiens, UniProt Q9UQM7)
Procedure: as §1

[15] = target: FGR (Homo sapiens, UniProt P09769)
Procedure: as §1

[16] = target: PDGFRA (PDGFR alpha) (Homo sapiens, UniProt P16234)
Procedure: as §1

[17] = target: EPHA4 (Homo sapiens, UniProt P54764)
Procedure: as §1

[18] = target: BMX (Homo sapiens, UniProt P51813)
Procedure: as §1

[19] = target: T1, CDK5/p35 (Homo sapiens, UniProt Q00535)
T1 construct: p35
Procedure: as §1

[20] = target: PRKG1 (Homo sapiens, UniProt Q13976)
Procedure: as §1

[21] = target: MAPK14 (p38 alpha)** (Homo sapiens, UniProt Q16539)
Procedure: as §1

[22] = target: NTRK2 (TRKB) (Homo sapiens, UniProt Q16620)
Procedure: as §1

T1 sequence (Q00535 whole entry): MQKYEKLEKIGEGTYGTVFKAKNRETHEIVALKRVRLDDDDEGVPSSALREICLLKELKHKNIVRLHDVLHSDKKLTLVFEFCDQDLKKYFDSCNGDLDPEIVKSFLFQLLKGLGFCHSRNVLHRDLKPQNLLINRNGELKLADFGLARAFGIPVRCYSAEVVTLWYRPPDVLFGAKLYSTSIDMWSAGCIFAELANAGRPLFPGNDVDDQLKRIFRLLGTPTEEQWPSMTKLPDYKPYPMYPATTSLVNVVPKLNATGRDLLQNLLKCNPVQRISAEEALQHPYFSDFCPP
T1 sequence (Q15078 whole entry partner): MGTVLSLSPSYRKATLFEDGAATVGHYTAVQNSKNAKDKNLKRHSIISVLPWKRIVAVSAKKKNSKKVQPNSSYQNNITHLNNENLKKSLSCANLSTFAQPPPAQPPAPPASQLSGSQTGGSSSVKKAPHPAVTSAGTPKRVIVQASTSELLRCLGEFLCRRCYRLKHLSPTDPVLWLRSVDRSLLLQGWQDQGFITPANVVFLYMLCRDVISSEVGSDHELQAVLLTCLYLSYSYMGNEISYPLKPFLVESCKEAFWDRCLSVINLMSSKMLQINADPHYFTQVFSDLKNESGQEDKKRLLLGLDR
CAMK2A (CaMKII alpha), sequence (Q9UQM7 whole entry): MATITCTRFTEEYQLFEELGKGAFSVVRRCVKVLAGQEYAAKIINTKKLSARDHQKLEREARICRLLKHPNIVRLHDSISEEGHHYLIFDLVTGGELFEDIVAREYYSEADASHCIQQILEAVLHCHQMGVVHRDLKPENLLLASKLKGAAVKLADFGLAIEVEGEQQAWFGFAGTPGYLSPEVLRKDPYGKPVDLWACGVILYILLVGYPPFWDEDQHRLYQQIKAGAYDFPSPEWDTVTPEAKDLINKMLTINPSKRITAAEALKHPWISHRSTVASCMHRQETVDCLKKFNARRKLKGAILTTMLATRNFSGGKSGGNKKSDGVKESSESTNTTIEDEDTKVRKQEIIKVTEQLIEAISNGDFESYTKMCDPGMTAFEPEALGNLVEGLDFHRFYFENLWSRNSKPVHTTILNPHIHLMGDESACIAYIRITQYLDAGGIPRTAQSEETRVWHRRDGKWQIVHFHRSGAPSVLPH
FGR, sequence (P09769 whole entry): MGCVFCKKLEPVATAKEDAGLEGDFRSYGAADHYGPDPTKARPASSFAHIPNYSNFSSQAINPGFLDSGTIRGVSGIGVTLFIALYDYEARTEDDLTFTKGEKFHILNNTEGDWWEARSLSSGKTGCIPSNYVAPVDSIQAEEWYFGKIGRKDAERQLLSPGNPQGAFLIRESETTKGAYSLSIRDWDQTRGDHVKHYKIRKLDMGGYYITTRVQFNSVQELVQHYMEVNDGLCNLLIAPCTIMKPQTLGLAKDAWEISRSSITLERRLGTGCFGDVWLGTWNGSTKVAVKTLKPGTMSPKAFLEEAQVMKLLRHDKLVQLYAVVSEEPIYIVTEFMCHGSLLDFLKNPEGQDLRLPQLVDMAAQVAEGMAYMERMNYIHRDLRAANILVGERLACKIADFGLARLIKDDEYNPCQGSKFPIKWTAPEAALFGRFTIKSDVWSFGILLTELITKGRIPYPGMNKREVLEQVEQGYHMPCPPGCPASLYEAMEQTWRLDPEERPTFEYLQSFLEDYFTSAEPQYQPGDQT
RET, sequence (P07949 whole entry): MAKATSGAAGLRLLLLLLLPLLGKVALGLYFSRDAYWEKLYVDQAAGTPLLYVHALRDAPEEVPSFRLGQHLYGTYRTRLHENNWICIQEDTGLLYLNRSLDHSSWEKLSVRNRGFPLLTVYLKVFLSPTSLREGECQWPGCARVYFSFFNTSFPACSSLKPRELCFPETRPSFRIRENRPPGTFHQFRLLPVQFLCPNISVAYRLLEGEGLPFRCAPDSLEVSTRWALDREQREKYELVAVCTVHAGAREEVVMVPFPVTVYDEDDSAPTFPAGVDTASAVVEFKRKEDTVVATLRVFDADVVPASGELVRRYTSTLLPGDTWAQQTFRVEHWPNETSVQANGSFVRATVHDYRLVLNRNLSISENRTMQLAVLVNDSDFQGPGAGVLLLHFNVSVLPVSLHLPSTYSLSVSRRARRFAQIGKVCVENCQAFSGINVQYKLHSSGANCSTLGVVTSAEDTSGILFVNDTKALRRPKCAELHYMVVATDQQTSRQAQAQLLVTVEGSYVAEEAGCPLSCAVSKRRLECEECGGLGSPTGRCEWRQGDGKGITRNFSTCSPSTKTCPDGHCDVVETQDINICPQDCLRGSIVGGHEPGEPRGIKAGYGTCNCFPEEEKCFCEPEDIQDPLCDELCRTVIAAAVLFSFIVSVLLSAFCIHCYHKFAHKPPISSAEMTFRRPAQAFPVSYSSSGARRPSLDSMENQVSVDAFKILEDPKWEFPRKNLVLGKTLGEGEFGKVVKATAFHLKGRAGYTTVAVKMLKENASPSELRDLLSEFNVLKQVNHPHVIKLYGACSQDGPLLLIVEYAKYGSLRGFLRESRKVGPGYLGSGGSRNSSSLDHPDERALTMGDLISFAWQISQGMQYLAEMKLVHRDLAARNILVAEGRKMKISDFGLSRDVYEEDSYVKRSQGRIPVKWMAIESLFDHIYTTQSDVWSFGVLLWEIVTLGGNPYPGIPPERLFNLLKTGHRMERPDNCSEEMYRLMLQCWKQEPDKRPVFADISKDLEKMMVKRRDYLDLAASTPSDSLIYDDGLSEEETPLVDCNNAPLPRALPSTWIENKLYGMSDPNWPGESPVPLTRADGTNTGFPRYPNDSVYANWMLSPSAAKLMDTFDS
BMX, sequence (P51813 whole entry): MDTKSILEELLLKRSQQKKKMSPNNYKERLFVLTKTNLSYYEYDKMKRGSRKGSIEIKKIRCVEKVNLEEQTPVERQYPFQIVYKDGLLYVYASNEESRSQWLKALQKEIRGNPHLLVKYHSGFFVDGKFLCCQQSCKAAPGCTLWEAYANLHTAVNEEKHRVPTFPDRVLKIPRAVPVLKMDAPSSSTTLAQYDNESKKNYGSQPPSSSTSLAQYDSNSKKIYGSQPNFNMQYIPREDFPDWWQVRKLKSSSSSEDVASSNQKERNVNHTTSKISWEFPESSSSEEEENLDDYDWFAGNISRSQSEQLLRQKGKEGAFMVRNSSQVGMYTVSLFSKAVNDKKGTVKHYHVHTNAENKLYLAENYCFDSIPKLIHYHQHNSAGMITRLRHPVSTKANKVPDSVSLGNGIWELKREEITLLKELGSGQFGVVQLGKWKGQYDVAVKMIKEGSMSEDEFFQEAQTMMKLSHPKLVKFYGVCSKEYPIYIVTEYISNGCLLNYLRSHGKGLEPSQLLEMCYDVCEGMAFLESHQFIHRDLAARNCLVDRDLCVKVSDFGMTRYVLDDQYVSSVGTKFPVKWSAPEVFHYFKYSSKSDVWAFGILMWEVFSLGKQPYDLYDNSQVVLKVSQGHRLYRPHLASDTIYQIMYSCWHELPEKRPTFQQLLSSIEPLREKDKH
PRKG1, sequence (Q13976 whole entry): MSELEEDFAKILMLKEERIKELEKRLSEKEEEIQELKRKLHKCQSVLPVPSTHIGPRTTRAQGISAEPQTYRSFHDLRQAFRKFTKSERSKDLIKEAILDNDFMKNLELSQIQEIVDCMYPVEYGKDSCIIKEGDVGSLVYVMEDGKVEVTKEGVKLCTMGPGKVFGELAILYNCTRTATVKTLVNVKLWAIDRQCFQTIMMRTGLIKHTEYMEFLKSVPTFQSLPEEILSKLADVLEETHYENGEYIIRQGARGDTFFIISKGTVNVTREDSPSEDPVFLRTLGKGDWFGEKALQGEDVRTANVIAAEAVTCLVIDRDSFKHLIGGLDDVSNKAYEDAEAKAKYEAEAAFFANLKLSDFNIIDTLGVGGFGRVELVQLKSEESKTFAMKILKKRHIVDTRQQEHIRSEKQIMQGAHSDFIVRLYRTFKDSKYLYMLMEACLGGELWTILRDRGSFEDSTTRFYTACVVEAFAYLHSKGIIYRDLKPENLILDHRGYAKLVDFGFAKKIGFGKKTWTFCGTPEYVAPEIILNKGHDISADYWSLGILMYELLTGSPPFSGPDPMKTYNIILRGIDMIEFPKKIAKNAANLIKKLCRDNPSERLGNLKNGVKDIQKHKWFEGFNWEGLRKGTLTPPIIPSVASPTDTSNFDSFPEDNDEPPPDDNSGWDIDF
STK3 (MST2), sequence (Q13188 whole entry): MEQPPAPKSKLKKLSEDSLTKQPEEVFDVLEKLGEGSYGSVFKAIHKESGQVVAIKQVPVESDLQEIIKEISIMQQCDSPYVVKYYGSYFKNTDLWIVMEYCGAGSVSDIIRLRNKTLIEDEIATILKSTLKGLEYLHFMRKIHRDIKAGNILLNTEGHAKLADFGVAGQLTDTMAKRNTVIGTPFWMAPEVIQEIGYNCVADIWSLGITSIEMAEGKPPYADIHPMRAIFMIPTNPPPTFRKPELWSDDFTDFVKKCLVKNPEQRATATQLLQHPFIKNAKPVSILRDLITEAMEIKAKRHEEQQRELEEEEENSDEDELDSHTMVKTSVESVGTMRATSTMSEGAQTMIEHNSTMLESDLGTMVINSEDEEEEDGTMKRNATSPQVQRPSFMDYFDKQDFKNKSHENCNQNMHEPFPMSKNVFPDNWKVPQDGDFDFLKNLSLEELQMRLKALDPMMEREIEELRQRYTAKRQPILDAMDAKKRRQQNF
MAP2K1 (MEK1), sequence (Q02750 whole entry): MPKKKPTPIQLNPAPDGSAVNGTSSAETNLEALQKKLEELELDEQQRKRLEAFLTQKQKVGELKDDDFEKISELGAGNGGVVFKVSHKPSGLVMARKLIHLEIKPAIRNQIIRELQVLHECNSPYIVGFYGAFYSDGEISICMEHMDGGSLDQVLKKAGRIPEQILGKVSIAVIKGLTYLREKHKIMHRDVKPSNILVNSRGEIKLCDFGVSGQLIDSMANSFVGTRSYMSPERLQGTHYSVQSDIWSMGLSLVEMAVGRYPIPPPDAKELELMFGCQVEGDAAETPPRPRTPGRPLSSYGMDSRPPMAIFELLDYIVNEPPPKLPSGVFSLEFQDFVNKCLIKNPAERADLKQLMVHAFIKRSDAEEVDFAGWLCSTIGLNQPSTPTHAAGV

`N#CCCNc1nccc(-c2cn(CC(F)F)nc2-c2cnc3[nH]ccc3c2)n1` [RAFi, PF-04880594] gave an inhibition at 1 µM [1] of -1%, an inhibition at 1 µM [2] of 9% and an inhibition at 1 µM [3] of -1%. The inhibition at 1 µM [4] was 12%, the inhibition at 1 µM [5] was 81% and the inhibition at 1 µM [6] was -7%. For the same molecule, the inhibition at 1 µM [7] was 57%, the inhibition at 1 µM [8] was 6% and the inhibition at 1 µM [9] was 1%. The inhibition at 1 µM [10] was 8%, the inhibition at 1 µM [11] was 16% and the inhibition at 1 µM [12] was 24%. For the same molecule, the inhibition at 1 µM [13] was 10%, the inhibition at 1 µM [14] was -1% and the inhibition at 1 µM [15] was 2%. It also gave an inhibition at 1 µM [16] of 10%, an inhibition at 1 µM [17] of 1% and an inhibition at 1 µM [18] of -3%. The inhibition at 1 µM [19] was 9%, the inhibition at 1 µM [20] was -3% and the inhibition at 1 µM [21] was 93%. The inhibition at 1 µM [22] was 23%.

Source: publication PMC3382171 (PLoS ONE, 2012)
